From patent publication US7060709B2, “Method of treating hepatic fibrosis” (Wyeth, priority 2003, dated 2006)

Tests used:
orthotopic glioma = conditions: nude mice; cited from earlier work
[1] = tested on: human glioblastoma cell line; conditions: human glioblastoma cell line in vitro; cited from earlier work
human tumor xenografts = conditions: nude mice, cited from earlier work
[2] = tested on: histologically diverse tumor cells; conditions: cited from earlier work
[3] = stability of CCI-779 in parenteral cosolvent formulation; format: physicochemical; conditions: citric acid at a concentration of less than 0.01% w/v
Text: In this embodiment, the stability of CCI-779 in parenterally acceptable alcoholic cosolvents is enhanced by addition of an antioxidant to the formulation. Acceptable antioxidants include, but are not limited to, citric acid, d,l-α-tocopherol, BHA, BHT, monothioglycerol, ascorbic acid, propyl gallate, and mixtures thereof. Generally, the parenteral formulations useful in this embodiment of the invention will contain an antioxidant component(s) in a concentration ranging from 0.001% to 1% w/v, or 0.01% to 0.5% w/v, of the cosolvent concentrate, although lower or higher concentrations may be desired. Of the antioxidants, d,l-α-tocopherol is particularly desirable and is used at a concentration of 0.01 to 0.1% w/v with a preferred concentration of 0.075% w/v of the cosolvent concentrate.
Examples of such chelating agents include, e.g., citric acid, acetic acid, and ascorbic acid (which may function as both a classic antioxidant and a chelating agent in the present formulations). Other chelating agents include such materials as are capable of binding metal ions in solution, such as ethylene diamine tetra acetic acid (EDTA), its salts, or amino acids such as glycine are capable of enhancing the stability of CCI-779. […] Optimal concentrations for the selected antioxidant(s) can be readily determined by one of skill in the art, based upon the information provided herein.

CO[C@H]1C[C@@H]2CC[C@@H](C)[C@@](O)(O2)C(=O)C(=O)N2CCCC[C@H]2C(=O)O[C@H]([C@H](C)C[C@@H]2CC[C@@H](OC(=O)C(C)(CO)CO)[C@H](OC)C2)CC(=O)[C@H](C)/C=C(\C)[C@@H](O)[C@@H](OC)C(=O)[C@H](C)C[C@H](C)/C=C/C=C/C=C/1C [CCI-779, Rapamycin 42-ester with 3-hydroxy-2-(hydroxymethyl)-2-methylpropionic acid]
activity in orthotopic glioma model (orthotopic glioma): active | growth factor (platelet-derived)-induced stimulation [1]: markedly suppressed | growth of several human pancreatic tumors and one of two breast cancer lines (human tumor xenografts; in vivo): inhibited | activity against human tumor xenografts of diverse histological types (human tumor xenografts; gliomas particularly sensitive): has activity | cell cycle effect ([2]; in vitro tumor cells): arrested cells in the G1 phase | growth of tumor cells ([2]; in vitro, CNS cancer, leukemia (T-cell), breast cancer, prostate cancer and melanoma lines among the most sensitive): inhibit the growth | stability of CCI-779 [3]: enhanced the stability
